System: tumor cell clusters from colorectal cancer patients
Experiment: ex vivo drug sensitivity assay of tumor cell clusters in suspension culture (Edu incorporation)
Type: cell-based, human
Details: FIG. 4; test conditions of FIG. 3B; short-term suspension culture in defined growth medium
Procedure: Briefly, the non-tumor tissues and the necrotic fractions were carefully removed from the tumor specimen. The tumor tissues were cut into small pieces less than 1 mm in diameter using scissors. Minced tumor fractions were transferred into a sterile 100-ml triangle glass flask loaded with a magnet stir bar. A 10-15 ml digestion media containing 0.25 U/ml Liberase DH was added into the minced tumor tissues to start enzyme digestion. The enzyme mixture was incubated at 37° C. for 1-2 hours with moderate stirring. The partially digested tumor cell clusters were filtered through a 100-μm cell retainer. The filtrates were re-filtered through a 40-μm cell restrainer. The tumor cell clusters retained on the 40-μm cell restrainer was collected, wash twice with HBSS, then re-suspended in a defined growth media supplemented with cell growth factors and small molecule inhibitors.
For ex vivo drug sensitivity assays, the tumor cell clusters were recovered in a defined growth medium overnight. The defined growth medium was StemPro hESC SFM supplement with Nicotinamide, Wnt3A, Noggin, R-spondin-1, and Y27632. The tumor cell clusters were then exposed to drug (e.g., Docetaxel at 2 μM (Cmax)) for 24 hours before the drug was washed away. Following exposure with drug, the tumor cell clusters were labeled with 5-ethynyl-2′-deoxyuridine (Edu) to assess the tumor cell proliferation rates. The labeling started at 48 hours after the drug exposure and continued for 96 hours. In the control group, tumor cell clusters received no drug exposure with media change, but were similarly labeled with Edu. The labeled tumor cell clusters were dissociated into single cells and fixed. The fixed cells were stained with Hoechst 33342 in PBS containing 0.2% Triton X-100 overnight at 4° C. The incorporated Edu was detected by Click-iT reaction where fixed cells were incubated with a reaction mixture containing 1× Click-iT Edu reaction buffer, CuSO4, and azide-conjugated Alexa Fluor dye in the dark. The stained cells were washed with PBS before being distributed into a black wall plate for image acquisition and analysis.
For image acquisition and analysis, the stained tumor cells were imaged by a high-content screening (HCS) platform (Thermo Scientific Cellomics ArrayScan XTi HCS reader). The 10× objective was used to collect images. Twenty-five fields were imaged for each well, and more than 3000 cells were captured for the analysis. From the images two fluorescent signals were obtained from the HCS reader. Blue fluorescent signals recorded nucleus signals stained with Hoechst 33342, and green fluorescent signal detected the Edu incorporated in newly synthesized DNA. The Edu positive subpopulation cells percentage was calculated as percent of the total cell counts. […]

Structure (SMILES)	growth of tumor cell clusters (inhibition by tested drug)
O=C1[O][Pt]2([NH][C@@H]3CCCC[C@H]3[NH]2)[O]C1=O [oxaliplatin]	not completely inhibited
C#Cc1cccc(Nc2ncnc3cc(OCCOC)c(OCCOC)cc23)c1 [erlotinib]	not completely inhibited
C[C@@H](Oc1cc(-c2cnn(C3CCNCC3)c2)cnc1N)c1c(Cl)ccc(F)c1Cl [crizotinib]	not completely inhibited
CNC(=O)c1cc(Oc2ccc(NC(=O)Nc3ccc(Cl)c(C(F)(F)F)c3)cc2)ccn1 [sorafenib]	not completely inhibited

Reference: patent US11753626B2, “Tumor cell suspension cultures and related methods” (Beijing Percans Oncology Co., Ltd., priority 2016, dated 2023)
